According to ChEMBL document CHEMBL5032504, “Discovery and Optimization of a Novel 2H-Pyrazolo[3,4-d]pyrimidine Derivative as a Potent Irreversible Pan-Fibroblast Growth Factor Receptor Inhibitor” (J Med Chem, 2021):
Each block holds one compound with its values, some of them ahead of it.

What was measured:
[1] = system: NCI-H1581; test: cells; format: functional, cell-based; conditions: Homo sapiens, NCI-H1581, 96 h
[2] = system: SNU-16; test: cells; format: functional, cell-based; conditions: Homo sapiens, SNU-16, 96 h
[3] = system: SK-HEP1; test: cells; format: functional, cell-based; conditions: Homo sapiens, SK-HEP1, 96 h
[4] = system: Huh-7; test: cells; format: functional, cell-based; conditions: Homo sapiens, Huh-7, 96 h
[5] = system: NCI-H460; test: cells; format: functional, cell-based; conditions: Homo sapiens, NCI-H460, 96 h
[6] = system: NCI-H1581; test: animal or person; format: functional; conditions: Mus musculus, NCI-H1581, po, 624 h, time 26 day, read-out: TGI
Description: Antitumor activity against human NCI-H1581 cells xenografted in BALB/c mouse assessed as tumor growth inhibition at 50 mg/kg, po administered once daily for 26 days relative to control

[7] = system: SNU-16; test: animal or person; format: functional; conditions: Mus musculus, SNU-16, po, 960 h, time 40 day, read-out: TGI
Description: Antitumor activity against human SNU-16 cells xenografted in BALB/c mouse assessed as tumor growth inhibition at 50 mg/kg, po administered once daily for 40 days relative to control

[8] = system: NCI-H1581; test: animal or person; format: functional; conditions: Mus musculus, NCI-H1581, po, 624 h, time 26 day, read-out: TGI; remark: listed apart in the source
Description: Antitumor activity against human NCI-H1581 cells xenografted in BALB/c mouse assessed as tumor growth inhibition at 100 mg/kg, po administered once daily for 26 days relative to control

[9] = system: SNU-16; test: animal or person; format: functional; conditions: Mus musculus, SNU-16, po, 960 h, time 40 day, read-out: TGI; remark: listed apart in the source
Description: Antitumor activity against human SNU-16 cells xenografted in BALB/c mouse assessed as tumor growth inhibition at 100 mg/kg, po administered once daily for 40 days relative to control

[10] = target: Voltage-gated inwardly rectifying potassium channel KCNH2 (Homo sapiens, UniProt Q12809)
Description: Binding affinity to human ERG

[11] = target: Tyrosine-protein kinase ABL1 (Homo sapiens) (UniProt P00519); conditions: dose 1000.0 nM
Tyrosine-protein kinase ABL1 (Homo sapiens), sequence (P00519 whole entry): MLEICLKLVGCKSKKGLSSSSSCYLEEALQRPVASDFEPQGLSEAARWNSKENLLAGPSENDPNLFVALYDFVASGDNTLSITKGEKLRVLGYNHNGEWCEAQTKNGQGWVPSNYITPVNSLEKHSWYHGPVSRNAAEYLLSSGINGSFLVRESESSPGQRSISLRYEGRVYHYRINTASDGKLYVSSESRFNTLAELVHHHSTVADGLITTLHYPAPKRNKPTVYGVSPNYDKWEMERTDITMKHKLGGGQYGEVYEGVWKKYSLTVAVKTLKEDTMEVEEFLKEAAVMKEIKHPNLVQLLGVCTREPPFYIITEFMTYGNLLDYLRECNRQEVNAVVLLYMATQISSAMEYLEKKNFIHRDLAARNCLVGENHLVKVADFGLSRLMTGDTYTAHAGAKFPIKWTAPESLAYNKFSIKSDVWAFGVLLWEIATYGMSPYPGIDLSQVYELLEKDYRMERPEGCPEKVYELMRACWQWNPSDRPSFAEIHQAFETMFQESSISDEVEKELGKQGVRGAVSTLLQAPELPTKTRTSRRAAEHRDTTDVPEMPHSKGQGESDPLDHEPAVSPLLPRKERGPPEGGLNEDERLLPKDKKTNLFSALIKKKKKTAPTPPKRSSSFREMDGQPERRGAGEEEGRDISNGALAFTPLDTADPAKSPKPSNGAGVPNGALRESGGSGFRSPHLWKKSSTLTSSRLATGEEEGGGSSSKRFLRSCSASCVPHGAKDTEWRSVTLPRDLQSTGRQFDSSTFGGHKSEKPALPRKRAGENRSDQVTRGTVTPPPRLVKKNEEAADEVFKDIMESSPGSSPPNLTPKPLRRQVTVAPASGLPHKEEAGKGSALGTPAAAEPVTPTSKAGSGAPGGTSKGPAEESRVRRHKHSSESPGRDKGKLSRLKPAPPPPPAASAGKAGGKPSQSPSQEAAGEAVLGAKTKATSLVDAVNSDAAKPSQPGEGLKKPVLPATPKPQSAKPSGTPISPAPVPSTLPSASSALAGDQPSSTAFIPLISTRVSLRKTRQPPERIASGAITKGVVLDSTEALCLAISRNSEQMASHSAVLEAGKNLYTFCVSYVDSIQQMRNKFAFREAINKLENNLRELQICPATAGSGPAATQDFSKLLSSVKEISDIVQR
Description: Inhibition of ABL1 (unknown origin) at 1000 nM relative to control

[12] = target: ALK tyrosine kinase receptor (Homo sapiens) (UniProt Q9UM73); conditions: dose 1000.0 nM
Description: Inhibition of ALK (unknown origin) at 1000 nM relative to control

[13] = target: RAC-gamma serine/threonine-protein kinase (Homo sapiens) (UniProt Q9Y243); conditions: dose 1000.0 nM
Description: Inhibition of AKT3 (unknown origin) at 1000 nM relative to control

[14] = target: Mitogen-activated protein kinase kinase kinase 5 (Homo sapiens) (UniProt Q99683); conditions: dose 1000.0 nM
Description: Inhibition of ASK1 (unknown origin) at 1000 nM relative to control

[15] = target: Aurora kinase A (Homo sapiens) (UniProt O14965); conditions: dose 1000.0 nM
Aurora kinase A (Homo sapiens), sequence (O14965 whole entry): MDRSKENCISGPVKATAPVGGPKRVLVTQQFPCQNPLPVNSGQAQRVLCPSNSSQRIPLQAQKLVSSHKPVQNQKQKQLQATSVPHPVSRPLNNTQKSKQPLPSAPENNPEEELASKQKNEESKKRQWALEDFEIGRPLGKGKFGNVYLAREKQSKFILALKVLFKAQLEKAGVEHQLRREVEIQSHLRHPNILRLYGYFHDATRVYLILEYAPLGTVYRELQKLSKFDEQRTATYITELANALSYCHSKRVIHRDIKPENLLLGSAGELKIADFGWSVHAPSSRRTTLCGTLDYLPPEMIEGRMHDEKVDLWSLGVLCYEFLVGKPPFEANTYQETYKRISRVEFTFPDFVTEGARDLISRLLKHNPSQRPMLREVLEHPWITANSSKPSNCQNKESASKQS
Description: Inhibition of AURORA kinase A (unknown origin) at 1000 nM relative to control

[16] = target: Tyrosine-protein kinase receptor UFO (Homo sapiens) (UniProt P30530); conditions: dose 1000.0 nM
Description: Inhibition of AXL (unknown origin) at 1000 nM relative to control

[17] = target: Tyrosine-protein kinase BTK (Homo sapiens) (UniProt Q06187); conditions: dose 1000.0 nM
Tyrosine-protein kinase BTK (Homo sapiens), sequence (Q06187 whole entry): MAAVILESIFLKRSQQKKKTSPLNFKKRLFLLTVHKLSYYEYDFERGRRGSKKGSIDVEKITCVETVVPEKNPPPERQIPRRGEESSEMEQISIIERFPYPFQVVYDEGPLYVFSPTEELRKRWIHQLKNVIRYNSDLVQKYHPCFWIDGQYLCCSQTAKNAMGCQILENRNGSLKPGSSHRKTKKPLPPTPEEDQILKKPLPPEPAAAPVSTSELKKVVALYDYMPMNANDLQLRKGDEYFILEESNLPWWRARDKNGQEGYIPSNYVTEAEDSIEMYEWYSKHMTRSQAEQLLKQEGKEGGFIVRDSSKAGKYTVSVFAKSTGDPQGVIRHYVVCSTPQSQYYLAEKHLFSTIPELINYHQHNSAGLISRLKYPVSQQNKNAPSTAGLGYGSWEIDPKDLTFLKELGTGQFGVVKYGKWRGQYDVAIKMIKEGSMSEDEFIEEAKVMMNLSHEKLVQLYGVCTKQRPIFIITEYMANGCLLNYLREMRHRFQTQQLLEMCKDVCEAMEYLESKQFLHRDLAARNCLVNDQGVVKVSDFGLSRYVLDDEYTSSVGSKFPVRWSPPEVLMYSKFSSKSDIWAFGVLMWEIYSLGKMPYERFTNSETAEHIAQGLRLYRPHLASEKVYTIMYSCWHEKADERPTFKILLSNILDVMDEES
Description: Inhibition of BTK (unknown origin) at 1000 nM relative to control

[18] = target: Serine/threonine-protein kinase B-raf (Homo sapiens) (UniProt P15056); conditions: dose 1000.0 nM
Description: Inhibition of BRAF (unknown origin) at 1000 nM relative to control

[19] = target: Calcium/calmodulin-dependent protein kinase type II subunit alpha (Homo sapiens) (UniProt Q9UQM7); conditions: dose 1000.0 nM
Description: Inhibition of CAMK2 alpha (unknown origin) at 1000 nM relative to control

[20] = target: Cyclin-dependent kinase 4 (Homo sapiens) (UniProt P11802); conditions: dose 1000.0 nM
Description: Inhibition of CDK4 (unknown origin) at 1000 nM relative to control

[21] = target: Casein kinase II subunit alpha (Homo sapiens) (UniProt P68400); conditions: dose 1000.0 nM
Description: Inhibition of CK2alpha1 (unknown origin) at 1000 nM relative to control

[22] = target: Serine/threonine-protein kinase Chk1 (Homo sapiens) (UniProt O14757); conditions: dose 1000.0 nM
Description: Inhibition of CHK1 (unknown origin) at 1000 nM relative to control

[23] = target: Dual specificity protein kinase CLK1 (Homo sapiens) (UniProt P49759); conditions: dose 1000.0 nM
Description: Inhibition of CLK1 (unknown origin) at 1000 nM relative to control

[24] = target: Tyrosine-protein kinase Mer (Homo sapiens) (UniProt Q12866); conditions: dose 1000.0 nM
Description: Inhibition of c-MER (unknown origin) at 1000 nM relative to control

[25] = target: Tyrosine-protein kinase CSK (Homo sapiens) (UniProt P41240); conditions: dose 1000.0 nM
Tyrosine-protein kinase CSK (Homo sapiens), sequence (P41240 2-450 limits assumed): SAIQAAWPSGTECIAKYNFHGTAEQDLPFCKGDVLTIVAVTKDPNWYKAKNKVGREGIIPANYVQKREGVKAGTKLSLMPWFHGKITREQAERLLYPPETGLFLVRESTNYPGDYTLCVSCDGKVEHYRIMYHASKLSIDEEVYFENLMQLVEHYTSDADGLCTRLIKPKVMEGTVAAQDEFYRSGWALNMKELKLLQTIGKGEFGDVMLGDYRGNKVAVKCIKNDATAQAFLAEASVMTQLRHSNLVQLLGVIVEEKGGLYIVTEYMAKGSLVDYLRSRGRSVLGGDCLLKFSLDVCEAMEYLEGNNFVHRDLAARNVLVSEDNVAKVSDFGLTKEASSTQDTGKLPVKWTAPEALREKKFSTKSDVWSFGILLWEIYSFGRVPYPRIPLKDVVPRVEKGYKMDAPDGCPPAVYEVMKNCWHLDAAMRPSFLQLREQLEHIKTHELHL
Description: Inhibition of CSK (unknown origin) at 1000 nM relative to control

[26] = target: Discoidin domain-containing receptor 2 (Homo sapiens) (UniProt Q16832); conditions: dose 1000.0 nM
Description: Inhibition of DDR2 (unknown origin) at 1000 nM relative to control

[27] = target: Epidermal growth factor receptor (Homo sapiens) (UniProt P00533); conditions: dose 1000.0 nM
Description: Inhibition of EGFR (unknown origin) at 1000 nM relative to control

[28] = target: Interferon-induced, double-stranded RNA-activated protein kinase (Homo sapiens) (UniProt P19525); conditions: dose 1000.0 nM
Description: Inhibition of EIF2AK2 (unknown origin) at 1000 nM relative to control

[29] = target: Focal adhesion kinase 1 (Homo sapiens) (UniProt Q05397); conditions: dose 1000.0 nM
Description: Inhibition of FAK (unknown origin) at 1000 nM relative to control

[30] = species on record: Homo sapiens; conditions: dose 1000.0 nM
Description: Inhibition of FYNA (unknown origin) at 1000 nM relative to control

[31] = target: Receptor-type tyrosine-protein kinase FLT3 (Homo sapiens) (UniProt P36888); conditions: dose 1000.0 nM
Description: Inhibition of FLT3 (unknown origin) at 1000 nM relative to control

[32] = target: Glycogen synthase kinase-3 alpha (Homo sapiens) (UniProt P49840); conditions: dose 1000.0 nM
Description: Inhibition of GSK3alpha (unknown origin) at 1000 nM relative to control

[33] = target: Glycogen synthase kinase-3 beta (Homo sapiens) (UniProt P49841); conditions: dose 1000.0 nM
Description: Inhibition of GSK3beta (unknown origin) at 1000 nM relative to control

[34] = target: Receptor tyrosine-protein kinase erbB-2 (Homo sapiens) (UniProt P04626); conditions: dose 1000.0 nM
Description: Inhibition of HER2 (unknown origin) at 1000 nM relative to control

[35] = target: Tyrosine-protein kinase ITK/TSK (Homo sapiens) (UniProt Q08881); conditions: dose 1000.0 nM
Description: Inhibition of ITK (unknown origin) at 1000 nM relative to control

[36] = target: Interleukin-1 receptor-associated kinase 4 (Homo sapiens) (UniProt Q9NWZ3); conditions: dose 1000.0 nM
Interleukin-1 receptor-associated kinase 4 (Homo sapiens), sequence (Q9NWZ3 whole entry): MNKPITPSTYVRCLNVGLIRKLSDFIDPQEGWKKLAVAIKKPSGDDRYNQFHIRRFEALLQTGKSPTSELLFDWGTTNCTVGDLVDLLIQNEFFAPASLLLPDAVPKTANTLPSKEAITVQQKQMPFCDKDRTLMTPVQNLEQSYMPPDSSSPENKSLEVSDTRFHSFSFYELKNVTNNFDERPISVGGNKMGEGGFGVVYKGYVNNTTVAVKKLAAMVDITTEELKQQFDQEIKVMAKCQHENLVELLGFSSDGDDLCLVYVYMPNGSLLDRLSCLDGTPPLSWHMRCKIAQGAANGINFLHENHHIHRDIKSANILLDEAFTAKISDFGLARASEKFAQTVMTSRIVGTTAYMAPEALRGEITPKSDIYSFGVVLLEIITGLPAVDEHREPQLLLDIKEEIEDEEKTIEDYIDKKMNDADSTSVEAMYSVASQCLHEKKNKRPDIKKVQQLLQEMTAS
Description: Inhibition of IRAK4 (unknown origin) at 1000 nM relative to control

[37] = target: Mitogen-activated protein kinase 8 (Homo sapiens) (UniProt P45983); conditions: dose 1000.0 nM
Description: Inhibition of JNK1 (unknown origin) at 1000 nM relative to control

[38] = target: Tyrosine-protein kinase JAK3 (Homo sapiens) (UniProt P52333); conditions: dose 1000.0 nM
Description: Inhibition of JAK3 (unknown origin) at 1000 nM relative to control

[39] = target: Tyrosine-protein kinase Lck (Homo sapiens) (UniProt P06239); conditions: dose 1000.0 nM
Description: Inhibition of LCK (unknown origin) at 1000 nM relative to control

[40] = target: Hepatocyte growth factor receptor (Homo sapiens) (UniProt P08581); conditions: dose 1000.0 nM
Description: Inhibition of MET (unknown origin) at 1000 nM relative to control

[41] = target: Mitogen-activated protein kinase 1 (Homo sapiens) (UniProt P28482); conditions: dose 1000.0 nM
Description: Inhibition of MAPK1 (unknown origin) at 1000 nM relative to control

[42] = target: Maternal embryonic leucine zipper kinase (Homo sapiens) (UniProt Q14680); conditions: dose 1000.0 nM
Maternal embryonic leucine zipper kinase (Homo sapiens), sequence (Q14680 whole entry, looked up): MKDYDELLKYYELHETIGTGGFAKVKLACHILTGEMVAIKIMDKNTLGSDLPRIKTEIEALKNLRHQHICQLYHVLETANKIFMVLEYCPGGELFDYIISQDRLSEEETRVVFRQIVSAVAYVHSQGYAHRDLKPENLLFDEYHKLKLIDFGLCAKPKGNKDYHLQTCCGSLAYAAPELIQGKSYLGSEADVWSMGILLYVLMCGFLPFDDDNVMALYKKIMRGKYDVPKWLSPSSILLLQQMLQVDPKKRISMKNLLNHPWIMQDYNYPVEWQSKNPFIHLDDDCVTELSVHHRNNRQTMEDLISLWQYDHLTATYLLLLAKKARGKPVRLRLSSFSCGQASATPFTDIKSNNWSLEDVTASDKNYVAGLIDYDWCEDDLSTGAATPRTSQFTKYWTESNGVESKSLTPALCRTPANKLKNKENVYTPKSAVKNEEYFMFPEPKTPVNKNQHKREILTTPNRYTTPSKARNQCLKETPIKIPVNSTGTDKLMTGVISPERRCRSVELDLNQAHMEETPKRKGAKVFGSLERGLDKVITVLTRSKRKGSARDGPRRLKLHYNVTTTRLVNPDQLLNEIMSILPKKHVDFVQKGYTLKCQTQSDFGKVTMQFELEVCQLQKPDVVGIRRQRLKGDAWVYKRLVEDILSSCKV
Description: Inhibition of MELK (unknown origin) at 1000 nM relative to control

[43] = target: Mitogen-activated protein kinase kinase kinase 14 (Homo sapiens) (UniProt Q99558); conditions: dose 1000.0 nM
Description: Inhibition of NIK (unknown origin) at 1000 nM relative to control

[44] = target: Serine/threonine-protein kinase Nek2 (Homo sapiens) (UniProt P51955); conditions: dose 1000.0 nM
Description: Inhibition of NEK2 (unknown origin) at 1000 nM relative to control

[45] = target: Serine/threonine-protein kinase Nek3 (Homo sapiens) (UniProt P51956); conditions: dose 1000.0 nM
Description: Inhibition of NEK3 (unknown origin) at 1000 nM relative to control

[46] = target: Serine/threonine-protein kinase PAK 3 (Homo sapiens) (UniProt O75914); conditions: dose 1000.0 nM
Description: Inhibition of PAK3 (unknown origin) at 1000 nM relative to control

[47] = species on record: Homo sapiens; conditions: dose 1000.0 nM; remark: listed apart in the source
Description: Inhibition of PKA (unknown origin) at 1000 nM relative to control

[48] = target: Platelet-derived growth factor receptor alpha (Homo sapiens) (UniProt P16234); conditions: dose 1000.0 nM
Description: Inhibition of PDGFRA (unknown origin) at 1000 nM relative to control

[49] = target: Serine/threonine-protein kinase pim-1 (Homo sapiens) (UniProt P11309); conditions: dose 1000.0 nM
Description: Inhibition of PIM1 (unknown origin) at 1000 nM relative to control

[50] = target: Mitogen-activated protein kinase 14 (Homo sapiens) (UniProt Q16539); conditions: dose 1000.0 nM
Description: Inhibition of P38alpha (unknown origin) at 1000 nM relative to control

[51] = target: Proto-oncogene tyrosine-protein kinase receptor Ret (Homo sapiens) (UniProt P07949); conditions: dose 1000.0 nM
Proto-oncogene tyrosine-protein kinase receptor Ret (Homo sapiens), sequence (P07949 whole entry): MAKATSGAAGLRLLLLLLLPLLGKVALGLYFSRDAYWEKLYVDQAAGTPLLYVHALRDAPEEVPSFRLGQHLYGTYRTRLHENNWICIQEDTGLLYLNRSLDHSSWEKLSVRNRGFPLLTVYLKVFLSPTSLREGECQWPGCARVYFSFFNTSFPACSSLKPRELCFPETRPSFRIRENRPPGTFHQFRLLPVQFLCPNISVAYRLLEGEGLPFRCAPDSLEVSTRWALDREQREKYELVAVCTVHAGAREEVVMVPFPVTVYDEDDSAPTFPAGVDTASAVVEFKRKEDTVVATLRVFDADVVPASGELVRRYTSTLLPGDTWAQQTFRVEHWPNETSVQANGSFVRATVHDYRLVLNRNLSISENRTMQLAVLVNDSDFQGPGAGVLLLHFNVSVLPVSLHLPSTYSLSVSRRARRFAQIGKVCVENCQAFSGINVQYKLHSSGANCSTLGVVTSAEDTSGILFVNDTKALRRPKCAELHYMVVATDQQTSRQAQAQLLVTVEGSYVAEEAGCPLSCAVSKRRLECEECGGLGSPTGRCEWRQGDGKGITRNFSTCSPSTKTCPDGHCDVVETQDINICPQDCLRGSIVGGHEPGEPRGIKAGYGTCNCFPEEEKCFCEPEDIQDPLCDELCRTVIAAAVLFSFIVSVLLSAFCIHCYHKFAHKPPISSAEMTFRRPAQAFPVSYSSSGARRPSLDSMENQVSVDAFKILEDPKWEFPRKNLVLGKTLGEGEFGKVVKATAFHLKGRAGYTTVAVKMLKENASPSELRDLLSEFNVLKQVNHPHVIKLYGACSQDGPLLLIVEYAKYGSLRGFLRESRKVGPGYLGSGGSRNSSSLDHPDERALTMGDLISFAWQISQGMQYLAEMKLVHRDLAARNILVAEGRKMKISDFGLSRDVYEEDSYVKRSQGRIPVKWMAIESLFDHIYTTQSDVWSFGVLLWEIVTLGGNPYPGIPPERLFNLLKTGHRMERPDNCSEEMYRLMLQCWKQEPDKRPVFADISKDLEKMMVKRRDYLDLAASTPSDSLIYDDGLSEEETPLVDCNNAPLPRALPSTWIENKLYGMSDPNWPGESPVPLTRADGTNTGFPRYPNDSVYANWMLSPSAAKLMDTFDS
Description: Inhibition of RET (unknown origin) at 1000 nM relative to control

[52] = target: Rho-associated protein kinase 1 (Homo sapiens) (UniProt Q13464); conditions: dose 1000.0 nM
Description: Inhibition of ROCK1 (unknown origin) at 1000 nM relative to control

[53] = target: Macrophage-stimulating protein receptor (Homo sapiens) (UniProt Q04912); conditions: dose 1000.0 nM
Description: Inhibition of RON (unknown origin) at 1000 nM relative to control

[54] = target: Proto-oncogene tyrosine-protein kinase Src (Homo sapiens) (UniProt P12931); conditions: dose 1000.0 nM
Description: Inhibition of SRC (unknown origin) at 1000 nM relative to control

[55] = target: Serine/threonine-protein kinase TBK1 (Homo sapiens) (UniProt Q9UHD2); conditions: dose 1000.0 nM
Description: Inhibition of TBK1 (unknown origin) at 1000 nM relative to control

[56] = target: TGF-beta receptor type-1 (Homo sapiens) (UniProt P36897); conditions: dose 1000.0 nM
Description: Inhibition of TGFBR1 (unknown origin) at 1000 nM relative to control

[57] = target: Serine/threonine-protein kinase TAO1 (Homo sapiens) (UniProt Q7L7X3); conditions: dose 1000.0 nM
Description: Inhibition of TAOK1 (unknown origin) at 1000 nM relative to control

[58] = target: Vascular endothelial growth factor receptor 2 (Homo sapiens) (UniProt P35968); conditions: dose 1000.0 nM
Description: Inhibition of VEGFR2(unknown origin) at 1000 nM relative to control

[59] = in vivo; conditions: Sprague-Dawley, rat, po, 5 mg/kg
[60] = in vivo; conditions: Sprague-Dawley, rat, po, 5 mg/kg; remark: listed apart in the source
Description: Half life in Sprague-Dawley rat plasma at 5 mg/kg, po administered as single dose measured up to 8 hrs by LC/MS-MS analysis

[61] = in vivo; conditions: Sprague-Dawley, rat, po, 5 mg/kg; remark: listed apart in the source
[62] = in vivo; conditions: Sprague-Dawley, rat, po, 5 mg/kg; remark: listed apart in the source
Description: Clearance in Sprague-Dawley rat at 5 mg/kg, po administered as single dose measured up to 8 hrs by LC/MS-MS analysis

[63] = in vivo; conditions: Sprague-Dawley, rat, po, 5 mg/kg; remark: listed apart in the source
Description: MRT in Sprague-Dawley rat at 5 mg/kg, po administered as single dose measured up to 8 hrs by LC/MS-MS analysis

[64] = in vivo; conditions: Sprague-Dawley, rat, iv, 5 mg/kg
Description: Initial plasma concentration in Sprague-Dawley rat at 5 mg/kg, iv administered as single dose measured up to 8 hrs by LC/MS-MS analysis

[65] = in vivo; conditions: Sprague-Dawley, rat, iv, 5 mg/kg; remark: listed apart in the source
[66] = in vivo; conditions: Sprague-Dawley, rat, iv, 5 mg/kg; remark: listed apart in the source
Description: MRT in Sprague-Dawley rat at 5 mg/kg, iv administered as single dose measured up to 8 hrs by LC/MS-MS analysis

[67] = in vivo; conditions: Sprague-Dawley, rat, iv, 5 mg/kg; remark: listed apart in the source

IC50 [1]: 24 nM
IC50 [2]: 6 nM
IC50 [3]: 2780 nM
IC50 [4]: > 10000 nM
IC50 [5]: > 10000 nM
SMILES: COc1cc(CCc2cc(NC(=O)c3ccc(N4C[C@@H](C)N[C@@H](C)C4)cc3)n[nH]2)cc(OC)c1 [FEXAGRATINIB]

IC50 [1]: 16 nM
IC50 [2]: 6 nM
IC50 [5]: > 10000 nM
inhibition [11]: 14%
inhibition [12]: 0%
inhibition [13]: 6%
inhibition [14]: 0%
inhibition [15]: 1%
inhibition [16]: 0%
inhibition [17]: 0%
inhibition [18]: 2%
inhibition [19]: 0%
inhibition [20]: 3%
inhibition [21]: 0%
inhibition [22]: 2%
inhibition [23]: 0%
inhibition [24]: 9%
inhibition [25]: 0%
inhibition [26]: 21%
inhibition [27]: 2%
inhibition [28]: 27%
inhibition [29]: 17%
inhibition [30]: 0%
inhibition [31]: 1%
inhibition [32]: 0%
inhibition [33]: 0%
inhibition [34]: 3%
inhibition [35]: 35%
inhibition [36]: 0%
inhibition [37]: 2%
inhibition [38]: 11%
inhibition [39]: 23%
inhibition [40]: 1%
inhibition [41]: 4%
inhibition [42]: 0%
inhibition [43]: 0%
inhibition [44]: 0%
inhibition [45]: 1%
inhibition [46]: 9%
inhibition [47]: 0%
inhibition [48]: 42%
inhibition [49]: 0%
inhibition [50]: 3%
inhibition [51]: 24%
inhibition [52]: 12%
inhibition [53]: 4%
inhibition [54]: 83%
inhibition [55]: 1%
inhibition [56]: 8%
inhibition [57]: 0%
inhibition [58]: 7%
bioavailability at 8 h [59]: 24.9%
half-life at 8 h [60]: 16.8 min
Tmax at 8 h [61]: 8.34 min
CL/F at 8 h [62]: 280000 mL/min
MRT at 8 h [63]: 19.1 min
C0 at 8 h [64]: 0.519 ng/mL
Tmax at 8 h [65]: 4.98 min
MRT at 8 h [66]: 60.5 min
AUC at 8 h [67]: 0.309 ng·h/mL
SMILES: COc1cc(OC)cc(-c2nn(CCCCCN3CCN(C(=O)/C=C/C(F)(F)F)CC3)c3ncnc(N)c23)c1
inhibition in vivo at 50 mg/kg [6]: 69.5%
inhibition in vivo at 50 mg/kg [7]: 67.9%
inhibition in vivo at 100 mg/kg [8]: 88.6%
inhibition in vivo at 100 mg/kg [9]: 89.4%
IC50 [10]: 3210 nM
